Patent US12600732B2, “Bifunctional compounds for degrading BTK via ubiquitin proteosome pathway” (NURIX THERAPEUTICS, INC., priority 2019, dated 2026)
Values joined by “and” are separate entries in the source; they are usually repeats but may differ in a detail not shown here. Equal values may be shown once. Read-outs that look alike come from different tables or passages of the source.

What was measured:
[1] = test system: B cell receptor (BCR) signaling; test: B cell activation assay (flow cytometry), mouse B cells; assay type: cell-based; details: treatment 4 h, IgM stimulation 18 h
Description: Compound was present throughout the stimulation. Cells were stained with Live/Dead dye (Fisher L34976) and then fluorophore-conjugated antibodies against CD20 (Biolegend 302330), CD3 (BD Pharmingen 557705), CD86 (Biolegend 305416) and CD69 (Biolegend 310906). Stained cells were fixed in PFA and run on an Attune N×T Acoustic Focusing Flow Cytometer (Thermo-Fisher A29004), and data was analyzed using FlowJo (v10.5.3) and GraphPad Prism (v7.00) software. Single live lymphocytes were gated for B cells (CD20+CD3−) and T cells (CD3+CD20−), and the geometric mean fluorescence intensity (MFI) of CD86 and CD69 was calculated for each population. The MFI of the unstimulated sample was used to quantify baseline activation.
This example evaluates whether CTM treatment affects B cell receptor (BCR) signaling. BTK is activated downstream of the B cell receptor and leads to upregulation of activation markers CD86 and CD69 on the surface of B cells.

TMD8 cells = test: Cell viability assay (CellTiter-Glo), TMD8 cells; details: for EC50: Homo sapiens, TMD8, 72 h; for EMAX (% viable cells): TMD8 cells, treatment time 72 h
TMD8 C481S cells = test: Cell viability assay (CellTiter-Glo), TMD8 C481S cells; details: for EC50: Homo sapiens, TMD8, 72 h; for EMAX (% viable cells): TMD8 C481S cells, treatment time 72 h
primary human T cells [2] = test: T cell activation assay, IL-2 secretion (ELISA); assay type: cell-based
Description: (§1) This example evaluates whether CTMs with IMiD activity affect T cell activation. […] These assays were performed to assess whether BTK CTMs with and without IMiD activity affected activation of primary human T cells after stimulation of the T cell receptor with anti-CD3/ati-CD28 stimulation. T cell activation was measured by IL-2 secretion (ELISA assay) and upregulation of activation markers CD25 and CD69 on the surface of T cells (flow cytometry). Data are presented as the fold-change of response relative to baseline (stimulation with anti-CD3/anti-CD28 stimulation in the absence of compound).

primary human T cells [3] = test: T cell activation assay, CD25 and CD69 staining (flow cytometry); assay type: cell-based; details: fold-change of response relative to baseline
Description: as §1

BTK = biological target: T1, BTK (Mus musculus, UniProt P35991); test: In vivo degradation of BTK in mouse PD experiments with oral dosing
T1 construct: from tissue; host or cells: mouse blood B cells / splenocytes (CD-1 or BALB/c)
Method in brief: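 BTK in blood or splenocytes read by flow cytometry (or HTRF), degradation taken as B-cell minus T-cell BTK MFI versus vehicle. Mice (CD-1 or BALB/c) received compound orally, initially 90 mg/kg for 6 h, then lower doses and longer time points.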

[4] = PK data for BTK CTMs (in vivo plasma concentrations); details: Mouse Balb/c
Excerpt: The present example evaluates in vivo plasma concentrations of BTK CTMs to develop PK-PD-efficacy relationship and predict human exposure.

BTK C481S = BTK C481S (Homo sapiens, UniProt Q06187, C481S); test: BTK degradation (Total BTK HTRF) in TMD8 cells expressing BTK-C481S; assay type: cell-based; parameters: endogenous in cells; host or cells: TMD8 BTK-C481S (clone2C3), Cas9 RNP knock-in; details: TMD8 BTK-C481S (clone2C3) cells, treatment time 4 h
Description: BTK levels were determined using Cisbio Total-BTK HTRF (Homologous Time-Resolved Fluorescence) kit (63ADK064PEG) according to the manufacturer's protocol. Briefly, cells were incubated in 1× supplied lysis buffer for 30 minutes. In an opaque white low volume 96-well plate (Cisbio, 66PL96005), cell lysate was combined with two different specific BTK antibodies, one conjugated with Eu^3+-Cryptate FRET donor and one conjugated with d2 FRET acceptor. Assay controls include wells containing cell lysate with only the Eu^3+-Cryptate FRET donor antibody and wells containing both HTRF antibodies and lysis buffer without cells or control lysate provided by Cisbio. HTRF ratio was calculated as (acceptor signal at 665 nm/donor signal at 620 nm)×10^4. Background HTRF levels were determined from the control well containing the donor, but no acceptor, antibody. Background HTRF levels were subtracted from all samples. Readouts were reported as HTRF levels relative to HTRF levels of DMSO-treated cells. Four-parameter non-linear regressions were performed in GraphPad Prism 7.02 to obtain DC50 values.
BTK Degradation (Total BTK HTRF) at Four Hours in TMD8 Cells Expressing BTK-C481S
This example evaluates the potency of CTM in degrading […]. The BTK binding moieties utilized in CTMs bind to the BTK active site. This example evaluates whether the active site mutation C481S affects CTM-induced degradation of BTK.

[5] = 1.4 nM, fold-change of response relative to baseline
[6] = 37 nM, fold-change of response relative to baseline
[7] = 333 nM, fold-change of response relative to baseline (stimulation without compound)
[8] = oral dose 30 mg/kg, 24 h, splenocytes, HTRF

| SMILES | EC50 ([1]; read-out: CD69 EC50) [nM] | EC50 ([1]; read-out: CD86 EC50) [nM] | EC50 (TMD8 cells) [nM] | EMAX (% viable cells) (TMD8 cells) [%] | EC50 (TMD8 C481S cells) [nM] | EMAX (% viable cells) (TMD8 C481S cells) [%] | IL-2 Secretion Anti-CD3/Anti-CD28 Stimulation (primary human T cells [2]; [5]) | IL-2 Secretion Anti-CD3/Anti-CD28 Stimulation (primary human T cells [2]; [6]) | IL-2 Secretion Anti-CD3/Anti-CD28 Stimulation (primary human T cells [2]; [7]) | CD25 Staining Anti-CD3/Anti-CD28 Stimulation (primary human T cells [3]; 1.4 nM) | CD69 Staining Anti-CD3/Anti-CD28 Stimulation (primary human T cells [3]; 1.4 nM) | CD25 Staining Anti-CD3/Anti-CD28 Stimulation (primary human T cells [3]; 37 nM) | CD69 Staining Anti-CD3/Anti-CD28 Stimulation (primary human T cells [3]; 37 nM) | CD25 Staining Anti-CD3/Anti-CD28 Stimulation (primary human T cells [3]; 333 nM) | CD69 Staining Anti-CD3/Anti-CD28 Stimulation (primary human T cells [3]; 333 nM) | % BTK Remaining (BTK; [8]) [%] | further results |
| --- | --- | --- | --- | --- | --- | --- | --- | --- | --- | --- | --- | --- | --- | --- | --- | --- | --- |
| O=C(c1ccc(Oc2ccccc2)cc1Cl)c1c[nH]c2ncnc(N[C@@H]3CC[C@@H](CO)OC3)c12 [ARQ531] | 50 | 70 | 100 | 16 | 100 | 17 | – | – | – | – | – | – | – | – | – | – | – |
| CN1CCN([C@@H]2CCCN(c3cnc(C(N)=O)c(Nc4ccc(N5CCN(C[C@@H]6[C@H]7CN(c8ccc9c(c8)C(=O)N(C8CCC(=O)NC8=O)C9=O)C[C@@H]67)CC5)cc4)n3)C2)C1=O (some centres unmarked) [Compound 38] | – | – | – | – | – | – | 1.21 | 1.58 | 1.81 | 1.05 | 1.02 | 1.02 | 0.99 | 0.86 | 0.90 | – | % BTK Remaining (BTK; oral dose 1 mg/kg, 6 h, splenocytes, HTRF, 1 mg/kg): 68% and 76%; % BTK Remaining (BTK; oral dose 3 mg/kg, 6 h, splenocytes, HTRF): 38% |
| CN1CCN([C@@H]2CCCN(c3cnc(C(N)=O)c(Nc4ccc(C5CCN(CC6CCN(c7ccc8c(c7)C(=O)N(C7CCC(=O)NC7=O)C8=O)CC6)CC5)cc4)n3)C2)C1=O (some centres unmarked) [Compound 51] | – | – | 0.32 | 20 | 1.95 | 49 | 1.19 | 1.99 | 2.12 | 0.86 | 0.91 | 0.62 | 0.62 | 0.38 | 0.39 | – | % BTK Remaining (BTK; oral dose 90 mg/kg, 6 h, splenocytes, HTRF): 2% |
| CN1CCN([C@@H]2CCCN(c3cnc(C(N)=O)c(Nc4ccc(C5CN(CC6CCN(c7ccc8c(=O)n(C9CCC(=O)NC9=O)ccc8c7)CC6)C5)cc4)n3)C2)C1=O (some centres unmarked) [Compound 69] | 0.1 | 0.3 | – | – | – | – | – | – | – | – | – | – | – | – | – | 33 | % BTK Remaining (BTK; oral dose 0.3 mg/kg, 24 h, blood, flow cytometry): 112%; % BTK Remaining (BTK; oral dose 3 mg/kg, 24 h, blood, flow cytometry): 43%; % BTK Remaining (BTK; oral dose 30 mg/kg, 24 h, blood, flow cytometry): 30%; AUC ([4]; 1 mg/kg IV): 0.68 µM·h; clearance ([4]; 1 mg/kg IV): 31.4 mL/min/kg; Vd ([4]; 1 mg/kg IV, read-out: Volume of Distribution): 2.2 L/kg; AUC ([4]; 10 mg/kg PO): 0.078 µM·h; bioavailability ([4]; 10 mg/kg PO): 1%; DC50 (BTK C481S): 0.8 nM |
| NC(=O)c1ncc(N2CCC[C@H](N3CCOC3=O)C2)nc1Nc1ccc(N2CCC(C3CN(c4ccc5c(c4)C(=O)N(C4CCC(=O)NC4=O)C5=O)C3)CC2)cc1 (some centres unmarked) [Compound 70] | – | – | – | – | – | – | – | – | – | – | – | – | – | – | – | 42 | DC50 (BTK C481S): 3.1 nM |
| CN1CCN([C@@H]2CCCN(c3cnc(C(N)=O)c(Nc4ccc(C5(C)CCN(C[C@H]6CCN(c7ccc8c(c7)C(=O)N(C7CCC(=O)NC7=O)C8=O)C6)CC5)cc4)n3)C2)C1=O (some centres unmarked) [Compound 71] | 1 | 2 | – | – | – | – | – | – | – | – | – | – | – | – | – | 27 | – |
| CN1CCN([C@H]2CCCN(c3cnc(C(N)=O)c(Nc4cnn(C5CCN(CC6CN(c7ccc8c(c7)C(=O)N(C7CCC(=O)NC7=O)C8=O)C6)CC5)c4)n3)C2)C1=O (some centres unmarked) [Compound 78] | – | – | 9.04 | 41 | 7.19 | 37 | 1.00 | 1.17 | 1.20 | 0.99 | 1.00 | 0.73 | 0.66 | 0.44 | 0.43 | – | % BTK Remaining (BTK; oral dose 3 mg/kg, 6 h, blood, flow cytometry): 74% |
